# Measured values published in the supplement of paper PMC10307832.
# How the values were obtained:
# Experiment in all cases: relative viability (nuclei count vs DMSO), 5 days (fraction); higher = more cells survive
# [1] = compound: CCN(CCO)CCCC(C)Nc1ccnc2cc(Cl)ccc12 [Hydroxychloroquine]
# Method in brief: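 Vehicle-anchored 1536-well plates of lung cancer cell lines, held overnight at 37 °C, were pinned with five library-drug doses (not always all listed) spaced by √10. No medium change followed over the next 5 days, after which the cells were fixed, permeabilised and Hoechst-stained together and imaged at 4×. Nuclei were counted with MetaXpress, and viability is treated-well nuclei over vehicle-well nuclei, taken as a median across plates. Plates passed with control CV below 25% and at least one doubling.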
# [2] = compound: CCN(CCO)CCCC(C)Nc1ccnc2cc(Cl)ccc12 [Hydroxychloroquine] + CC(C)C[C@H](NC(=O)[C@H](Cc1ccccc1)NC(=O)c1cnccn1)B(O)O [Bortezomib] (partner 0.002 µM)
# Method in brief: (§1)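 Relative viability equals treated-well nuclei counts divided by vehicle-well nuclei counts. Counts came from 4× images of lung cancer cell lines grown in 1536-well plates for 5 days after pin-tool dosing on the day after seeding. Dosing used one drug alone or a fixed anchor-drug dose plus five library-drug doses (not always all listed) in √10 steps, and values are medians of duplicate plates.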
# [3] = compound: CCN(CCO)CCCC(C)Nc1ccnc2cc(Cl)ccc12 [Hydroxychloroquine] + O=C(c1cc(Cc2n[nH]c(=O)c3ccccc23)ccc1F)N1CCN(C(=O)C2CC2)CC1 [Olaparib] (partner 8 µM)
# Method in brief: as §1
# [4] = compound: CCN(CCO)CCCC(C)Nc1ccnc2cc(Cl)ccc12 [Hydroxychloroquine] + CS(=O)(=O)CCNCc1ccc(-c2ccc3ncnc(Nc4ccc(OCc5cccc(F)c5)c(Cl)c4)c3c2)o1 [Lapatinib] (partner 2 µM)
# Method in brief: as §1
# [5] = compound: CCN(CCO)CCCC(C)Nc1ccnc2cc(Cl)ccc12 [Hydroxychloroquine] + COc1cc2c(Oc3ccc(NC(=O)C4(C(=O)Nc5ccc(F)cc5)CC4)cc3F)ccnc2cc1OCCCN1CCOCC1 [Foretinib] (partner 0.25 µM)
# Method in brief: as §1
# [6] = compound: CCN(CCO)CCCC(C)Nc1ccnc2cc(Cl)ccc12 [Hydroxychloroquine] + C[C@@H](Oc1cc(-c2cnn(C3CCNCC3)c2)cnc1N)c1c(Cl)ccc(F)c1Cl [Crizotinib] (partner 1 µM)
# Method in brief: as §1
# [7] = compound: CCN(CCO)CCCC(C)Nc1ccnc2cc(Cl)ccc12 [Hydroxychloroquine] + CC1(C)CCC(c2ccc(Cl)cc2)=C(CN2CCN(c3ccc(C(=O)NS(=O)(=O)c4ccc(N[C@H](CCN5CCOCC5)CSc5ccccc5)c(S(=O)(=O)C(F)(F)F)c4)cc3)CC2)C1 [Navitoclax] (partner 0.5 µM)
# Method in brief: as §1
# [8] = compound: CCN(CCO)CCCC(C)Nc1ccnc2cc(Cl)ccc12 [Hydroxychloroquine] + C[C@]1(O)C[C@@H](c2nc(-c3ccc4ccc(-c5ccccc5)nc4c3)c3c(N)nccn32)C1 [Linsitinib] (partner 1 µM)
# Method in brief: as §1
# [9] = compound: CCN(CCO)CCCC(C)Nc1ccnc2cc(Cl)ccc12 [Hydroxychloroquine] + Cc1nc(NC(=O)N2CCC[C@H]2C(N)=O)sc1-c1ccnc(C(C)(C)C(F)(F)F)c1 [Alpelisib] (partner 2 µM)
# Method in brief: as §1
# [10] = compound: CCN(CCO)CCCC(C)Nc1ccnc2cc(Cl)ccc12 [Hydroxychloroquine] + CS(=O)(=O)N1CCN(Cc2cc3nc(-c4cccc5[nH]ncc45)nc(N4CCOCC4)c3s2)CC1 [Pictilisib] (partner 1 µM)
# Method in brief: as §1
# [11] = compound: CCN(CCO)CCCC(C)Nc1ccnc2cc(Cl)ccc12 [Hydroxychloroquine] + N=C(N)NC(=N)NCCc1ccccc1 [Phenformin] (partner 250 µM)
# Method in brief: as §1
# [12] = compound: CCN(CCO)CCCC(C)Nc1ccnc2cc(Cl)ccc12 [Hydroxychloroquine] + Nc1ncn([C@H]2C[C@H](O)[C@@H](CO)O2)c(=O)n1 [Decitabine] (partner 2 µM)
# Method in brief: as §1
cell line,measurement,setting,value
Calu-6,relative viability,[1]; 0.5 µM,1.04
same,relative viability,[1]; 1.581 µM,1.03
same,relative viability,[1]; 5 µM,1
same,relative viability,[1]; 15.81 µM,1.1
same,relative viability,[1]; 50 µM,1
same,relative viability,[2]; first compound 0.5 µM,1
same,relative viability,[2]; first compound 1.581 µM,1.08
same,relative viability,[2]; first compound 5 µM,0.954
same,relative viability,[2]; first compound 15.81 µM,1
same,relative viability,[2]; first compound 50 µM,0.922
same,relative viability,[3]; first compound 0.5 µM,0.65
same,relative viability,[3]; first compound 1.581 µM,0.607
same,relative viability,[3]; first compound 5 µM,0.615
same,relative viability,[3]; first compound 15.81 µM,0.673
same,relative viability,[3]; first compound 50 µM,0.569
same,relative viability,[4]; first compound 0.5 µM,1.05
same,relative viability,[4]; first compound 1.581 µM,1.18
same,relative viability,[4]; first compound 5 µM,0.991
same,relative viability,[4]; first compound 15.81 µM,1.02
same,relative viability,[4]; first compound 50 µM,1.01
same,relative viability,[5]; first compound 0.5 µM,0.922
same,relative viability,[5]; first compound 1.581 µM,0.855
same,relative viability,[5]; first compound 5 µM,0.888
same,relative viability,[5]; first compound 15.81 µM,0.872
same,relative viability,[5]; first compound 50 µM,0.879
same,relative viability,[6]; first compound 0.5 µM,0.84
same,relative viability,[6]; first compound 1.581 µM,0.855
same,relative viability,[6]; first compound 5 µM,0.847
same,relative viability,[6]; first compound 15.81 µM,0.896
same,relative viability,[6]; first compound 50 µM,0.579
same,relative viability,[7]; first compound 0.5 µM,0.852
same,relative viability,[7]; first compound 1.581 µM,0.883
same,relative viability,[7]; first compound 5 µM,0.836
same,relative viability,[7]; first compound 15.81 µM,0.731
same,relative viability,[7]; first compound 50 µM,0.823
same,relative viability,[8]; first compound 0.5 µM,0.864
same,relative viability,[8]; first compound 1.581 µM,0.881
same,relative viability,[8]; first compound 5 µM,1.11
same,relative viability,[8]; first compound 15.81 µM,0.938
same,relative viability,[8]; first compound 50 µM,0.942
same,relative viability,[9]; first compound 0.5 µM,1.01
same,relative viability,[9]; first compound 1.581 µM,0.881
same,relative viability,[9]; first compound 5 µM,0.896
same,relative viability,[9]; first compound 15.81 µM,0.939
same,relative viability,[9]; first compound 50 µM,0.924
same,relative viability,[10]; first compound 0.5 µM,0.997
same,relative viability,[10]; first compound 1.581 µM,0.785
same,relative viability,[10]; first compound 5 µM,0.949
same,relative viability,[10]; first compound 15.81 µM,0.962
same,relative viability,[10]; first compound 50 µM,0.986
A549,relative viability,[1]; 0.5 µM,1.01
same,relative viability,[1]; 1.581 µM,0.945
same,relative viability,[1]; 5 µM,1.03
same,relative viability,[1]; 15.81 µM,0.928
same,relative viability,[1]; 50 µM,1.08
same,relative viability,[3]; first compound 0.5 µM,0.332
same,relative viability,[3]; first compound 1.581 µM,0.297
same,relative viability,[3]; first compound 5 µM,0.355
same,relative viability,[3]; first compound 15.81 µM,0.323
same,relative viability,[3]; first compound 50 µM,0.371
same,relative viability,[4]; first compound 0.5 µM,0.976
same,relative viability,[4]; first compound 1.581 µM,0.859
same,relative viability,[4]; first compound 5 µM,0.906
same,relative viability,[4]; first compound 15.81 µM,0.974
same,relative viability,[4]; first compound 50 µM,0.977
same,relative viability,[5]; first compound 0.5 µM,0.953
same,relative viability,[5]; first compound 1.581 µM,0.905
same,relative viability,[5]; first compound 5 µM,0.951
same,relative viability,[5]; first compound 15.81 µM,0.952
same,relative viability,[5]; first compound 50 µM,1.11
same,relative viability,[6]; first compound 0.5 µM,0.832
same,relative viability,[6]; first compound 1.581 µM,0.643
same,relative viability,[6]; first compound 5 µM,0.781
same,relative viability,[6]; first compound 15.81 µM,0.735
same,relative viability,[6]; first compound 50 µM,0.805
same,relative viability,[11]; first compound 0.5 µM,0.154
same,relative viability,[11]; first compound 1.581 µM,0.0895
same,relative viability,[11]; first compound 5 µM,0.15
same,relative viability,[11]; first compound 15.81 µM,0.14
same,relative viability,[11]; first compound 50 µM,0.154
same,relative viability,[7]; first compound 0.5 µM,1.24
same,relative viability,[7]; first compound 1.581 µM,1.09
same,relative viability,[7]; first compound 5 µM,1.26
same,relative viability,[7]; first compound 15.81 µM,1.29
same,relative viability,[7]; first compound 50 µM,1.19
same,relative viability,[8]; first compound 0.5 µM,0.617
same,relative viability,[8]; first compound 1.581 µM,0.543
same,relative viability,[8]; first compound 5 µM,0.576
same,relative viability,[8]; first compound 15.81 µM,0.646
same,relative viability,[8]; first compound 50 µM,0.629
same,relative viability,[12]; first compound 0.5 µM,0.264
same,relative viability,[12]; first compound 1.581 µM,0.208
same,relative viability,[12]; first compound 5 µM,0.267
same,relative viability,[12]; first compound 15.81 µM,0.196
same,relative viability,[12]; first compound 50 µM,0.391
same,relative viability,[9]; first compound 0.5 µM,0.749
same,relative viability,[9]; first compound 1.581 µM,0.577
same,relative viability,[9]; first compound 5 µM,0.761
same,relative viability,[9]; first compound 15.81 µM,0.708
same,relative viability,[9]; first compound 50 µM,0.623
same,relative viability,[10]; first compound 0.5 µM,0.622
same,relative viability,[10]; first compound 1.581 µM,0.525
same,relative viability,[10]; first compound 5 µM,0.434
same,relative viability,[10]; first compound 15.81 µM,0.529
same,relative viability,[10]; first compound 50 µM,0.565
